{"source": "patent US8758816B2", "about": "“Compositions comprising azelastine and methods of use thereof” (priority 2004, dated 2014)", "key": {"[1]": {"test": "Leaching of azelastine into the polymer of unit dose containers", "format": "physicochemical"}, "[2]": {"tested_on": "patients with seasonal allergic rhinitis (SAR)", "test": "MP 428 study: Adult Rhinoconjunctivitis Quality of Life Questionnaire outcomes, change from baseline", "format": "in vivo, human", "conditions": "Day 14/ET; Intent-to-Treat Population"}, "[3]": {"tested_on": "patients with seasonal allergic rhinitis (SAR)", "conditions": "in vivo"}, "[4]": {"conditions": "human, in vivo; cited from earlier work"}}, "note": "Counter-ions that a name gives are not always drawn."}
{"compound": "CN1CCCC(n2nc(Cc3ccc(Cl)cc3)c3ccccc3c2=O)CC1", "note": "(racemic) [Azelastine, (±)-1-(2H)-phthalazinone, 4-[(4-chlorophenyl)methyl]-2-(hexahydro-1-methyl-1H-azepin-4-yl)-, mono-hydrochloride]", "values": [{"measurement": "leaching into the container material", "setting": "[1]; HDPE unit dose containers, in contrast to lower-density PE", "result": "reduce, substantially reduce, or eliminate leaching"}, {"measurement": "leachability into the container material", "setting": "[1]; containers of polymers other than HDPE, including polyethylenes of lower density", "result": "high degree of undesirable leachability"}, {"measurement": "RQLQ Change From Baseline in Activity, LS Mean", "setting": "[2]", "result": "−1.37"}, {"measurement": "RQLQ Change From Baseline in Activity, Mean", "setting": "[2]", "result": "−1.25"}, {"measurement": "RQLQ Change From Baseline in Activity, Median", "setting": "[2]", "result": "−1.00"}, {"measurement": "RQLQ Change From Baseline in Emotional, LS Mean", "setting": "[2]", "result": "−1.26"}, {"measurement": "RQLQ Change From Baseline in Emotional, Mean", "setting": "[2]", "result": "−1.13"}, {"measurement": "RQLQ Change From Baseline in Emotional, Median", "setting": "[2]", "result": "−1.00"}, {"measurement": "RQLQ Change From Baseline in Eye Symptoms, LS Mean", "setting": "[2]", "result": "−1.64"}, {"measurement": "RQLQ Change From Baseline in Eye Symptoms, Mean", "setting": "[2]", "result": "−1.49"}, {"measurement": "RQLQ Change From Baseline in Eye Symptoms, Median", "setting": "[2]", "result": "−1.25"}, {"measurement": "RQLQ Change From Baseline in Nasal Symptoms, LS Mean", "setting": "[2]", "result": "−1.46"}, {"measurement": "RQLQ Change From Baseline in Nasal Symptoms, Mean", "setting": "[2]", "result": "−1.31"}, {"measurement": "RQLQ Change From Baseline in Nasal Symptoms, Median", "setting": "[2]", "result": "−1.25"}, {"measurement": "RQLQ Change From Baseline in Non-nose/eye Symptoms, LS Mean", "setting": "[2]", "result": "−0.88"}, {"measurement": "RQLQ Change From Baseline in Non-nose/eye Symptoms, Mean", "setting": "[2]", "result": "−0.82"}, {"measurement": "RQLQ Change From Baseline in Non-nose/eye Symptoms, Median", "setting": "[2]", "result": "−0.86"}, {"measurement": "RQLQ Change From Baseline in Overall Score, LS Mean", "setting": "[2]", "result": "−1.21"}, {"measurement": "RQLQ Change From Baseline in Overall Score, Mean", "setting": "[2]", "result": "−1.11"}, {"measurement": "RQLQ Change From Baseline in Overall Score, Median", "setting": "[2]", "result": "−1.13"}, {"measurement": "RQLQ Change From Baseline in Practical Problems, LS Mean", "setting": "[2]", "result": "−1.59"}, {"measurement": "RQLQ Change From Baseline in Practical Problems, Mean", "setting": "[2]", "result": "−1.50"}, {"measurement": "RQLQ Change From Baseline in Practical Problems, Median", "setting": "[2]", "result": "−1.33"}, {"measurement": "RQLQ Change From Baseline in Sleep, LS Mean", "setting": "[2]", "result": "−1.23"}, {"measurement": "RQLQ Change From Baseline in Sleep, Mean", "setting": "[2]", "result": "−1.02"}, {"measurement": "RQLQ Change From Baseline in Sleep, Median", "setting": "[2]", "result": "−1.00"}, {"measurement": "Body Weight for Patients of Age 12 to 17, Actual, Mean", "setting": "[3]", "result": 104.7, "unit": "lb"}, {"measurement": "Body Weight for Patients of Age 12 to 17, Actual, Median", "setting": "[3]", "result": 104.0, "unit": "lb"}, {"measurement": "Body Weight for Patients of Age 12 to 17, Actual, Min-Max", "setting": "[3]", "result": "98-112 lb"}, {"measurement": "Body Weight for Patients of Age 18 and Beyond, Actual, Mean", "setting": "[3]", "result": 186.2, "unit": "lb"}, {"measurement": "Body Weight for Patients of Age 18 and Beyond, Actual, Median", "setting": "[3]", "result": 177.8, "unit": "lb"}, {"measurement": "Body Weight for Patients of Age 18 and Beyond, Actual, Min-Max", "setting": "[3]", "result": "102-284 lb"}, {"measurement": "Body Weight, Actual, Mean", "setting": "[3]", "result": 181.2, "unit": "lb"}, {"measurement": "Body Weight, Actual, Median", "setting": "[3]", "result": 174.0, "unit": "lb"}, {"measurement": "Body Weight, Actual, Min-Max", "setting": "[3]", "result": "98-284 lb"}, {"measurement": "Respiration, Actual, Median", "setting": "[3]", "result": 16.0, "unit": "bpm"}, {"measurement": "Respiration, Change from baseline, Median", "setting": "[3]", "result": 0.0, "unit": "bpm"}, {"measurement": "Respiration, Change from baseline, Min-Max", "setting": "[3]", "result": "−4-4 bpm"}, {"measurement": "bitter taste adverse event", "setting": "[4]", "result": 19.7, "unit": "%"}]}
